Assay results from patent US11878049B1, “Mitapivat therapy and modulators of cytochrome P450” (Agios Pharmaceuticals, Inc., priority 2019, dated 2024).
Structures can show the parent of a compound that is named as a salt.

Assays:
Format in all cases: in vitro ADME
[1] = molecular target: T1, breast cancer resistance protein (BCRP) (Homo sapiens, UniProt Q9UNQ0); experiment: Transporter substrate assessment
T1 sequence (Q9UNQ0 1-655): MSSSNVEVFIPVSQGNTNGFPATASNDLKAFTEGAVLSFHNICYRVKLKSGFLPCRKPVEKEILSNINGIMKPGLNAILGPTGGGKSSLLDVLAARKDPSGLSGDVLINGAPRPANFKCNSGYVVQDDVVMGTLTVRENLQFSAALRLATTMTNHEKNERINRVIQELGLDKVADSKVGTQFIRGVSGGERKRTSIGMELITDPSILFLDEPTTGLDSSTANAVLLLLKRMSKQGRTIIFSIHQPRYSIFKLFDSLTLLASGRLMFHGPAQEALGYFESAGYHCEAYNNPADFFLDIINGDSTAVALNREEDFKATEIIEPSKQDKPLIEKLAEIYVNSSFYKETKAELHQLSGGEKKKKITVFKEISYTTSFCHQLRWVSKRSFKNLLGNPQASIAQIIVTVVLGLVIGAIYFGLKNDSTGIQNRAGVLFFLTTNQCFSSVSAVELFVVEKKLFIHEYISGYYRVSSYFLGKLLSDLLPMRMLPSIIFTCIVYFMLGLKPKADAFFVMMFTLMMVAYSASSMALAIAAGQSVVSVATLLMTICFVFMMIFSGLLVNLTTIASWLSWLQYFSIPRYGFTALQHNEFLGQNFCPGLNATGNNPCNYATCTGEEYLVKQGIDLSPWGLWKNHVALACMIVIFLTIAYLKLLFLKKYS

CYP2C9 = CYP2C9 (Homo sapiens, UniProt P11712); experiment: CYP enzyme inhibition
[2] = molecular target: organic anion transporter (OAT)3 (Homo sapiens, UniProt Q8TCC7); experiment: Transporter inhibition
[3] = molecular target: multidrug resistance-associated protein (MRP)2 (Homo sapiens, UniProt Q92887); experiment: Transporter inhibition
human CYP3A4 = experiment: CYP induction
human CYP2B6 = experiment: CYP induction
CYP2D6 = CYP2D6 (Homo sapiens, UniProt P10635); experiment: CYP enzyme inhibition
P-gp [4] = molecular target: T2, P-gp (Homo sapiens, UniProt P08183); experiment: Transporter inhibition
[5] = molecular target: uridine-5′-diphospho-glucuronosyltransferase (UGT) 1A3 (Homo sapiens, UniProt P35503); experiment: UGT inhibition
[6] = molecular target: uridine-5′-diphospho-glucuronosyltransferase (UGT) 1A4 (Homo sapiens, UniProt P22310); experiment: UGT inhibition
CYP3A4/5 = experiment: CYP enzyme inhibition (testosterone 6β-hydroxylation)
OAT1 = OAT1 (Homo sapiens, UniProt Q4U2R8); experiment: Transporter inhibition
[7] = molecular target: uridine-5′-diphospho-glucuronosyltransferase (UGT) 1A9 (Homo sapiens, UniProt O60656); experiment: UGT inhibition
MRP3 = MRP3 (Homo sapiens, UniProt O15438); experiment: Transporter inhibition
P-gp [8] = molecular target: T2, P-gp; experiment: Transporter substrate assessment
CYP2C8 = CYP2C8 (Homo sapiens, UniProt P10632); experiment: CYP enzyme inhibition
CYP2C19 [9] = molecular target: T3, CYP2C19 (Homo sapiens, UniProt P33261); experiment: CYP enzyme inhibition
[10] = molecular target: T1, breast cancer resistance protein (BCRP); experiment: Transporter inhibition
CYP2C19 [11] = molecular target: T3, CYP2C19; experiment: Metabolism-dependent CYP inhibition
[12] = molecular target: bile salts export pump (BSEP) (Homo sapiens, UniProt O95342); experiment: Transporter inhibition
[13] = molecular target: organic cation transporter (OCT)2 (Homo sapiens, UniProt O15244); experiment: Transporter inhibition
OATP1B3 = OATP1B3 (Homo sapiens, UniProt Q9NPD5); experiment: Transporter inhibition
CYP3A4 = CYP3A4 (Homo sapiens, UniProt P08684); experiment: Metabolism-dependent CYP inhibition
[14] = molecular target: organic anion transporting polypeptide (OATP)1B1 (Homo sapiens, UniProt Q9Y6L6); experiment: Transporter inhibition
organic anion transporting polypeptide (OATP)1B1, sequence (Q9Y6L6 whole entry): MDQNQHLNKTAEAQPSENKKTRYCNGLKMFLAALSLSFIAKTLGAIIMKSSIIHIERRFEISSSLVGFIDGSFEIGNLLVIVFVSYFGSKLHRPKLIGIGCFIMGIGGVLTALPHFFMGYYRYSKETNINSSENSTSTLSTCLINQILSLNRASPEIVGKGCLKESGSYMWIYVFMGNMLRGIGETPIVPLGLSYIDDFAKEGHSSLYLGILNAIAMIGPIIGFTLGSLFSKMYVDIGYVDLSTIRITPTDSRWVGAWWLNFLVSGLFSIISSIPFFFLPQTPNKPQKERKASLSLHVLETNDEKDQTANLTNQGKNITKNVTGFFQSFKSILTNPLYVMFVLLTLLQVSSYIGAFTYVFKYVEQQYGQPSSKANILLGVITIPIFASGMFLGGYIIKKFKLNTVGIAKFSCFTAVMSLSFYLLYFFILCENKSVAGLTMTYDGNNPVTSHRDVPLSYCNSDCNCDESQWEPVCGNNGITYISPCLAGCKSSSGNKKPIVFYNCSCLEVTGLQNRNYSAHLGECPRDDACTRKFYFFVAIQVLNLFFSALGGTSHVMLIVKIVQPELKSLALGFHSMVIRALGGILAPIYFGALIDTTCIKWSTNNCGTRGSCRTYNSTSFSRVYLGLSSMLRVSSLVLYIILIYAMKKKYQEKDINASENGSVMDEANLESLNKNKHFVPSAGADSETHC

T3 sequence (P33261 whole entry): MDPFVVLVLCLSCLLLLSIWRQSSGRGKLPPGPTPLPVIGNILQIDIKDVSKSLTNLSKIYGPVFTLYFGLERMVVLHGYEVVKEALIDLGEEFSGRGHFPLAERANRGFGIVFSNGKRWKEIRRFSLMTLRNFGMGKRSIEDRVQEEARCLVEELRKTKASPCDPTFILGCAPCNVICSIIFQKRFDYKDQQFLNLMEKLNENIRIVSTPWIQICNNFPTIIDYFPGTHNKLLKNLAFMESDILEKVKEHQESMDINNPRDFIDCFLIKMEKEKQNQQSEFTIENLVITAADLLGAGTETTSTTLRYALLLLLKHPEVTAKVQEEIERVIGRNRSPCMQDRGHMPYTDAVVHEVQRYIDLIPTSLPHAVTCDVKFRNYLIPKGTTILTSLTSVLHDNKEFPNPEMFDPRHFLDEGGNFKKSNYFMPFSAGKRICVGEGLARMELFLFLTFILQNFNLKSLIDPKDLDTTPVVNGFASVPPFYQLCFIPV
T2 sequence (P08183 whole entry): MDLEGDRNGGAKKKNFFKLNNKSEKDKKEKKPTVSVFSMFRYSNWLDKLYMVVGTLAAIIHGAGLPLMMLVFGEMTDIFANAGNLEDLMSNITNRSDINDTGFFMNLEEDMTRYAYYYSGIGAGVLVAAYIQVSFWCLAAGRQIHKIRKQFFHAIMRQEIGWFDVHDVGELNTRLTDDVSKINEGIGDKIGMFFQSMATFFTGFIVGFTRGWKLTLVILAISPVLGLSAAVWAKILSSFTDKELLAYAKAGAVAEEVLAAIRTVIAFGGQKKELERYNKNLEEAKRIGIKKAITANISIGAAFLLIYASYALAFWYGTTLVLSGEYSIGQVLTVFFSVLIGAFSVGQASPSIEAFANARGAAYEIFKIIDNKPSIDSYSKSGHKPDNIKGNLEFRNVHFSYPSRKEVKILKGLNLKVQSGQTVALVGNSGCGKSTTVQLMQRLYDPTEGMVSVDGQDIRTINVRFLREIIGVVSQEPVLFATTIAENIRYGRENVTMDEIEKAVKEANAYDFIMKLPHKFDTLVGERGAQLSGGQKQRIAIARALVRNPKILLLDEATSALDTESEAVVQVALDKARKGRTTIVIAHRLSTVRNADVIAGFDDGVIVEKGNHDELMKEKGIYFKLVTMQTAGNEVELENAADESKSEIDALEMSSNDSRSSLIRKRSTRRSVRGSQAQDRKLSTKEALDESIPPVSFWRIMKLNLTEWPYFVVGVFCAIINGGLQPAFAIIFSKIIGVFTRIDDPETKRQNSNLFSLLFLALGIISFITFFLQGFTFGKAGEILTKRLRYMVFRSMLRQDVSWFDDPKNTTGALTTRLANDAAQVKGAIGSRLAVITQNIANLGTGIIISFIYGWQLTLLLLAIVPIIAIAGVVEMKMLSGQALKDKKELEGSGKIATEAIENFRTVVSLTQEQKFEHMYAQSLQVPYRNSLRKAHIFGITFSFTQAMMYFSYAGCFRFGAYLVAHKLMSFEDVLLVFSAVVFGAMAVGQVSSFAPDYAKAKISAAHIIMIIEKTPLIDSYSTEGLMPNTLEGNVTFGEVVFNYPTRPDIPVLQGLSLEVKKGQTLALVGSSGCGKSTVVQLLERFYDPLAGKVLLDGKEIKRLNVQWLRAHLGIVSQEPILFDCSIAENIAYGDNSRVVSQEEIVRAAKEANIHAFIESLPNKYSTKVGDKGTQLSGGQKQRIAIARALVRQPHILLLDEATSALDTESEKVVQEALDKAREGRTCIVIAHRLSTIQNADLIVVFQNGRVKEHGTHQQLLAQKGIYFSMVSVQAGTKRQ
OATP1B3, sequence (Q9NPD5 whole entry): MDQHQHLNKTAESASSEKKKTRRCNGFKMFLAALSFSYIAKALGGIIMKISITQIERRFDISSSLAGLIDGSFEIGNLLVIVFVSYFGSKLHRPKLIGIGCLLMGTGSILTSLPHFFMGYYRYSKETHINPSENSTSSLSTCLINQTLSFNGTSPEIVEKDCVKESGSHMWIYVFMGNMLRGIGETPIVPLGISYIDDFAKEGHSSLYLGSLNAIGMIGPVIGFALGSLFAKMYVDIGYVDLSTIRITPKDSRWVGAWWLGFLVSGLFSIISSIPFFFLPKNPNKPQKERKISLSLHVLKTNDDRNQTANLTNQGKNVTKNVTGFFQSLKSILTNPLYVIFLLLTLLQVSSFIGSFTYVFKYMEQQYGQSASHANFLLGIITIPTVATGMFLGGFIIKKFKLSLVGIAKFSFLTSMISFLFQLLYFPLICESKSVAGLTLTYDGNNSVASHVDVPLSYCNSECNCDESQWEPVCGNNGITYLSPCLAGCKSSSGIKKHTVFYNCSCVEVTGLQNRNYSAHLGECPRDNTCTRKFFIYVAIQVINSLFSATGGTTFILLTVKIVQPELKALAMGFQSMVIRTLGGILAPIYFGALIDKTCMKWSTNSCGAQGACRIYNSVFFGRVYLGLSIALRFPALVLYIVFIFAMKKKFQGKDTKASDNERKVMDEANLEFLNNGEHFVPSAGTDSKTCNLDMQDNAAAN
MRP3, sequence (O15438 whole entry): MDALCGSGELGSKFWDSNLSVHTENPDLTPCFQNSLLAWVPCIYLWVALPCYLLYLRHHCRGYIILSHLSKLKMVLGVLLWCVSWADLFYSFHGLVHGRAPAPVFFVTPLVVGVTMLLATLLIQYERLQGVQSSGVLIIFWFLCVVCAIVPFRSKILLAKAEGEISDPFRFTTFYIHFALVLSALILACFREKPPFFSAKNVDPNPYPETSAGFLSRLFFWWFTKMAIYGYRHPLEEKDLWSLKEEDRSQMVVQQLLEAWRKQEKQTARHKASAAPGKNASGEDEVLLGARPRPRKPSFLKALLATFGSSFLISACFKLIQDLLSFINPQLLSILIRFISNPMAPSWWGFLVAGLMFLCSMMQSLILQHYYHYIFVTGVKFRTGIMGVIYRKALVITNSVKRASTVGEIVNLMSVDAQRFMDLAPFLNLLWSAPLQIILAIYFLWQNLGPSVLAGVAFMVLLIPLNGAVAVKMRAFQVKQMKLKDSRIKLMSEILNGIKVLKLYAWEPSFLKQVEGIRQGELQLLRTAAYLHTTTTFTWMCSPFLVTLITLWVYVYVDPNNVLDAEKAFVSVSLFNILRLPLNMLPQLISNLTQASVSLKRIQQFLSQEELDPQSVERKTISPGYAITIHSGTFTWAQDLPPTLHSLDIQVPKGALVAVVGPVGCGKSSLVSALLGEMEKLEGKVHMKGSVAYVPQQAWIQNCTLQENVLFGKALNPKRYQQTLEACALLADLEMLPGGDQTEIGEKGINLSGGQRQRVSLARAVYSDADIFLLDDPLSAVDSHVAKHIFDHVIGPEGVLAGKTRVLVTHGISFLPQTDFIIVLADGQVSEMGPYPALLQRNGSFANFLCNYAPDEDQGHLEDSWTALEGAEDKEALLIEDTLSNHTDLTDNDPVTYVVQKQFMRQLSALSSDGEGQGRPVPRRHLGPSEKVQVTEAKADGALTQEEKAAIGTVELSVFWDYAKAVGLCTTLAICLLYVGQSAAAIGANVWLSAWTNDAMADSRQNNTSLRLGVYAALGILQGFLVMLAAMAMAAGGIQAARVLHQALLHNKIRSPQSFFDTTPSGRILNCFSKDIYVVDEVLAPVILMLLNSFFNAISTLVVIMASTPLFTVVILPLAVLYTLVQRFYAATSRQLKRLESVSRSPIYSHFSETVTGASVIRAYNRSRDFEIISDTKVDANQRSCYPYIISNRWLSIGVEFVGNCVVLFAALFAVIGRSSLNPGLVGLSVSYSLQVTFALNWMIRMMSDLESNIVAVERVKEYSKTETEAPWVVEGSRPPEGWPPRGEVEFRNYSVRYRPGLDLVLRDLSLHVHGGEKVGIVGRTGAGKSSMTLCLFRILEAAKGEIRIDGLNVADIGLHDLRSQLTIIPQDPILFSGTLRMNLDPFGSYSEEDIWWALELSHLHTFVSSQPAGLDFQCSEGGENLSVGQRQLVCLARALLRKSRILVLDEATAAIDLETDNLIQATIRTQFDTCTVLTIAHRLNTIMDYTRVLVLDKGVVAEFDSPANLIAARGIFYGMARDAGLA

Inhibition of CYP2C9 (CYP2C9): mild inhibitor
Inhibition of OAT3 [2]: mild inhibitor
Inhibition of MRP2 [3]: does not appear to be an inhibitor
Induction of human CYP3A4 (human CYP3A4): potential inducer
Induction of human CYP2B6 (human CYP2B6): potential inducer
Inhibition of CYP2D6 (CYP2D6): mild inhibitor
Inhibitor for P-gp (P-gp [4]): inhibitor
Inhibition of UGT1A3 [5]: mild inhibitor
Inhibition of UGT1A4 [6]: mild inhibitor
Inhibition of CYP3A4/5 (CYP3A4/5): mild inhibitor
Inhibition of OAT1 (OAT1): does not appear to be an inhibitor
Inhibition of UGT1A9 [7]: mild inhibitor
Inhibition of MRP3 (MRP3): does not appear to be an inhibitor
Substrate for P-gp (P-gp [8]): substrate
Inhibition of CYP2C8 (CYP2C8): mild inhibitor
Inhibition of CYP2C19 (CYP2C19 [9]): mild inhibitor
Metabolism-dependent inhibition of CYP2C19 (evidence found), reversibility (CYP2C19 [11]): largely reversible
Inhibition of OCT2 [13]: mild inhibitor
Inhibition of OATP1B3 (OATP1B3): does not appear to be an inhibitor
Metabolism-dependent inhibition of CYP3A4 (evidence found), reversibility (CYP3A4): largely irreversible
Inhibition of OATP1B1 [14]: mild inhibitor
SMILES: O=C(c1ccc(NS(=O)(=O)c2cccc3cccnc23)cc1)N1CCN(CC2CC2)CC1 [Mitapivat sulfate]
Substrate for BCRP [1]: not for breast cancer resistance protein (BCRP)
Inhibitor for BCRP [10]: not for breast cancer resistance protein (BCRP)
Inhibition of BSEP [12]: mild inhibitor
